The test system of data set [1] is human microvascular endothelial cells (HMEC). The experiment in a line: In vitro angiogenesis assay (Matrigel tube formation). The format is cell-based. The settings on record: 500 μg/ml final concentration of peptide, images at 18 h. As for the experimental part: Angiogenesis of human microvascular endothelial cells (HMEC) was induced in vitro using a Matrigel assay described by Al-Mahmood et al (2009, JPET, 2009; 58:933). This method is based on the differentiation of endothelial cells to form capillary structures on a Matrigel Matrix. Matrigel is prepared the Engelbreth-Holm-Swarm (EHS) mouse tumor, which represents a complex mixture of basement membrane proteins including type IV collagen, entactin, proteo-heparan sulfate and other growth factors.
Briefly, 250 μl of Matrigel were transferred to each well of a 24-well culture plate and incubated at 37° C. for 30 min to allow for the matrix solution to solidify. HMEC grown in complete growth medium EGM-2MV were harvested by trypsin, suspended in the same growth medium and 500 μl containing 70 000 cells were added on top of the solidified Matrigel in each well and in the presence or absence of peptide. Cells were maintained in a humidified atmosphere air containing 5% CO2 at 37° C. for 18-24 hrs. Endothelial tube formation was observed and photographed under an inverted light microscope.
The designed tyrosine phosphorylated and non phosphorylated peptides were tested for their influence onto the in vitro angiogenesis. The results of the in vitro angiogenesis assay were presented in FIG. 1, using HMEC and 500 μg/ml final concentration of each peptide.

For the next data set, the system named is mTOR. Kind of data set: mTOR status in HMEC after incubation with peptides (anti-mTor antibody Ser2448). The class given is cell-based, human. The method, then: (§1) Human EC grown in EGM-2MV (80% confluence) were incubated with the peptides of the invention or vehicle for the indicated time, washed three times in cold PBS and directly lysed in 2 ml of ice-cold lysis buffer (10 mM Tris pH 7.5, 150 mM NaCl, 1 mM PMSF, 0.5 μg/ml leupeptin, 1 μg/ml pepstatin A, and 1 μg/ml aprotinin) by incubation for 30 min at 4° C. Cell lysate were spun at […] for 10 min, insoluble materials were discarded, and protein contents measured by Bradford assay of supernatants were adjusted. Cell lysate (1 ml) was precleared with 25 μl of protein G-plus agarose beads (Santa Cruz) for 30 min, and proteins were then immunoprecipitated by adding 2 μg of the indicated antibody and incubated for 1 hr. The immunocomplex was pulled down with protein G-plus agarose beads and the beads were washed three times with lysis buffer. The immunoprecipitates were separated by NuPAGE® 4-12% Bis-Tris gel electrophoresis under reducing conditions, transferred to PVDF membrane (Novex System, Invitrogen), and the membrane was blocked with 5% (w/v) non-fat milk in TBS containing 0.1% v/v Tween-20 for 1 hr.
The status of mTOR in the HMEC following incubation with peptides GS-0 and GS-1 was investigated.

Data set [2] can be described thus: Body weight and toxicity of mice bearing NCI-H460 tumors (Example 2). The format is in vivo. The method, then:
All experiments were reviewed by the Genopole's institutional animal care and use committee and were performed in accordance with institutional guidelines for animal care. Female BALB/c nu/nu mice (n=30) were used at 5-6 weeks of age. The animals were housed in laminar air-flow cabinets under pathogen-free conditions with a 12 h light/12 h dark schedule, and fed autoclaved standard chow and water ad libitum. […] Tumor cells (10^7 cells in 200 μl of HBSS) were injected subcutaneously into the right flanks of mice. […] At tumor volume about 150 mm3, animals were randomized, and separated into five groups of five animals. Control mice (group 1) were intraperitoneally injected with vehicle (10% DMSO in buffer saline) every day. GS-0 was dissolved in vehicle and intraperitoneally injected (group 2) every day (12 injections). GS-1 was dissolved in vehicle and intraperitoneally injected (group 3) every day (12 injections). Tumor volume and body weight were measured every other day over the treatment period (12 days).

Data set [3] can be described thus: Solubility of peptides in 10% DMSO in PBS. The class given is physicochemical. The settings on record: 1 mg of peptide/ml of 10% DMSO in PBS. As for the experimental part:
GS-1 as well as the control peptide GS-0 were solubilized in DMSO and the resulting solutions were diluted 10 times with phosphate buffer saline (PBS) to obtain a concentration of 1 mg of peptide/ml of 10% DMSO in PBS. At this concentration, all peptides were soluble in 10% DMSO.
GS-2 as well as the control peptide GS-0 were solubilized in DMSO and the resulting solutions were diluted 10 times with phosphate buffer saline (PBS) to obtain a concentration of 1 mg of peptide/ml of 10% DMSO in PBS. At this concentration, all peptides were soluble in 10% DMSO.

Data set [4] has as its target T1, recruitment of the regulatory subunit (p85) of the enzyme PI-3K by IRS-1 (Homo sapiens, UniProt P27986).
T1 construct: endogenous in cells; host or cells: human microvascular endothelial cells (HMEC)
Kind of data set: Recruitment of p85 of PI-3K by IRS-1 (IRS-1 immunoprecipitation, anti-p85 immunoblot) in HMEC. The settings on record: final concentration of peptide 500 μg/ml. The class given is cell-based. As for the experimental part: as §1
As it is widely admitted that the tyrosine phosphorylation of IRS-1 leads to its association with the regulatory subunit (p85) of the enzyme PI-3K, and this event lead to important increases in the enzymatic activity of this later, we have investigated the influence of the tyrosine phosphorylated and non phosphorylated peptides onto the recruitment of the regulatory subunit (p85) of the enzyme PI-3K by IRS-1. For that, human microvascular endothelial cells (HMEC) were incubated with the tyrosine phosphorylated and non phosphorylated peptides (final concentration of peptide 500 μg/ml) followed by cells lysis and immuoprecipitation of the protein IRS-1. The immunoprecipitates were then resolved in SDS-PAGE, proteins were transferred to membranes, and the membranes were immunoblotted with an anti-p85 PI3K monoclonal antibody.

In a further data set the test system is NCI-H460 tumors. Kind of data set: NCI-H460 tumor xenograft in nude mice, tumor volume (Example 2). The class given is in vivo. As for the experimental part: H460 cell line has cytology compatible with human Non-Small Cell Lung Cancer (NSCL). Cells were grown in MEM medium containing 10% FCS at 37° C., 5% CO2 humidified atmosphere. The absence of mycoplasms was confirmed by using the PCR Mycoplasma Detection kit (Takara). All experiments were reviewed by the Genopole's institutional animal care and use committee and were performed in accordance with institutional guidelines for animal care. Female BALB/c nu/nu mice (n=30) were used at 5-6 weeks of age. The animals were housed in laminar air-flow cabinets under pathogen-free conditions with a 12 h light/12 h dark schedule, and fed autoclaved standard chow and water ad libitum. The NCI-H460 human NSCL cell line was obtained from American Type Culture Collection (ATCC) and cells were grown in RPMI medium 1640 supplemented with 1 μM sodium pyruvate. Tumor cells (10^7 cells in 200 μl of HBSS) were injected subcutaneously into the right flanks of mice. After engraftment, tumor volume was measured by Vernier callipers, and calculated as described in Balsari A et al. (Balsari A et al. (2004) Eur J Cancer 40: 1275-1281). At tumor volume about 150 mm3, animals were randomized, and separated into five groups of five animals. Control mice (group 1) were intraperitoneally injected with vehicle (10% DMSO in buffer saline) every day. GS-0 was dissolved in vehicle and intraperitoneally injected (group 2) every day (12 injections). GS-1 was dissolved in vehicle and intraperitoneally injected (group 3) every day (12 injections). Tumor volume and body weight were measured every other day over the treatment period (12 days). GS-1 as well as the control peptide GS-0 were solubilized in DMSO and the resulting solutions were diluted 10 times with phosphate buffer saline (PBS) to obtain a concentration of 1 mg of peptide/ml of 10% DMSO in PBS. At this concentration, all peptides were soluble in 10% DMSO.

“Also recorded” adds a separate entry of the source. Where a SMILES comes first, the peptide text is derived from it. [ ]: non-standard residue; d: D form. pY = N[C@@H](Cc1ccc(OP(=O)(O)O)cc1)C(=O)O

T1 sequence (P27986 whole entry): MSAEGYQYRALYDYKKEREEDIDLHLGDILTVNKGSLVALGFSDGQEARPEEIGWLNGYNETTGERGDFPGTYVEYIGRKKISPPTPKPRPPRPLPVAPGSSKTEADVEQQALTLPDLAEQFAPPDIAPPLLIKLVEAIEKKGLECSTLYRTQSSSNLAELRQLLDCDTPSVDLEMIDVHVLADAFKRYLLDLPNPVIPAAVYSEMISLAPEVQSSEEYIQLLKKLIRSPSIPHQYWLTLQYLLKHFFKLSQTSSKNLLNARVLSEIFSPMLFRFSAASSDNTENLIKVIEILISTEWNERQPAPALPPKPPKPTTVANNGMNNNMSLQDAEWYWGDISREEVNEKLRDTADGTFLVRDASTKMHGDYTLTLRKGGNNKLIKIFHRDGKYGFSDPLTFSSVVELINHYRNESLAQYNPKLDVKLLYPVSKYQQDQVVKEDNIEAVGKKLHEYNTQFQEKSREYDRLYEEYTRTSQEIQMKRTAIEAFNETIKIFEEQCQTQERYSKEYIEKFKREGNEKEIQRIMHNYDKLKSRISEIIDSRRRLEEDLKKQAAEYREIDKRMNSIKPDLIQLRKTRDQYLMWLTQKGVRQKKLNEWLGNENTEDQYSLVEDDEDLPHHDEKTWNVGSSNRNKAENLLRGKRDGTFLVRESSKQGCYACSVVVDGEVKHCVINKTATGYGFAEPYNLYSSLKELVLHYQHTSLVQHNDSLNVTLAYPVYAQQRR

As for “DpYMTMQ (Ac-D[pY]MTMQ-NH2) [GS-3, tyrosine phosphorylated peptide]”, the “in vitro angiogenesis-inhibitory activity” value in data set [1] is listed as “have in vitro angiogenesis-inhibitory activities”.

As for `CSCC[C@H](NC(=O)[C@H](Cc1ccccc1)NC(=O)[C@H](CCSC)NC(=O)[C@H](Cc1ccc(OP(=O)(O)O)cc1)NC(=O)CNC(C)=O)C(=O)N[C@@H](CO)C(N)=O` [GS-1, GpYMFMS] (Ac-G[pY]MFMS-NH2), the “amounts of mTOR in HMEC relative to vehicle” value with mTOR is “much less amounts of mTOR”. The “toxicity and body weight loss during treatment” value in data set [2] (8 mg/kg intraperitoneally every day, 12 injections) was “No toxicity and no body weight loss”. In addition, the “Mean body weight D1” value in data set [2] (Table 1, 8 mg/kg i.p. daily, day 1, in g) amounted to 23.58. The “Mean body weight D3” value in data set [2] (Table 1, 8 mg/kg i.p. daily, day 3, in g) worked out at 23.27. For the same molecule, in data set [2] (Table 1, 8 mg/kg i.p. daily, day 5, in g), the “Mean body weight D5” value came to 20.69. For the same molecule, the “Mean body weight D7” value in data set [2] (Table 1, 8 mg/kg i.p. daily, day 7, in g) amounted to 23.29. In addition, the “Mean body weight D9” value in data set [2] (Table 1, 8 mg/kg i.p. daily, day 9, in g) is 23.72. Also, the “Mean body weight D11” value in data set [2] (Table 1, 8 mg/kg i.p. daily, day 11, in g) was 23.81. For the same molecule, the “Mean body weight D13” value in data set [2] (Table 1, 8 mg/kg i.p. daily, day 13, in g) turned out to be 23.48. Besides, the “solubility in 10% DMSO” value in data set [3] was “soluble”. Also, the “influence onto the recruitment of the regulatory subunit (p85) of PI3K by IRS-1” value in data set [4] is “very strong inhibitory effects”. For the same molecule, the “influence on the in vivo growth of the tumor NCI-H460 (in words)” value with NCI-H460 tumors (8 mg/kg i.p. daily for 12 days) was “highly significant and potent influence; also recorded: statistically significant and potent anti-tumoral activity”. In addition, the “mean tumor volume at the end of treatment” value in the data set with NCI-H460 tumors (8 mg/kg i.p. daily for 12 days, n=5) turned out to be 234.98 ± 69.22 mm^3. Moreover, the Mean tumor volume D1 with NCI-H460 tumors (Table 2, 8 mg/kg i.p. daily, day 1) was 114 mm³. The molecule also yielded a Mean tumor volume D3 in the data set on NCI-H460 tumors (Table 2, 8 mg/kg i.p. daily, day 3) of 133 mm³. The molecule further registered a Mean tumor volume D5 with NCI-H460 tumors (Table 2, 8 mg/kg i.p. daily, day 5) of 124 mm³. In the data set on NCI-H460 tumors (Table 2, 8 mg/kg i.p. daily, day 7), the Mean tumor volume D7 was determined as 141 mm³. The Mean tumor volume D9 in the data set on NCI-H460 tumors (Table 2, 8 mg/kg i.p. daily, day 9) came out at 231 mm³. This molecule registered a Mean tumor volume D11 with NCI-H460 tumors (Table 2, 8 mg/kg i.p. daily, day 11) of 334 mm³. This molecule also yielded a Mean tumor volume D13 in the data set with NCI-H460 tumors (Table 2, 8 mg/kg i.p. daily, day 13) of 235 mm³. In addition, in data set [1], the “in vitro angiogenesis-inhibitory activity” value is on record as “have in vitro angiogenesis-inhibitory activities”.

Source of the values: US9206236B2, “Peptides for treating cancer” (Gene Signal International SA, priority 2010, dated 2015).
